Laboratory results: patent US12589143B2, “Human anti-PD-L1 peptide vaccines and methods of their use” (priority 2019, dated 2026)
Several values for one entry are separate records, joined by “and”; a condition that tells them apart may be missing. Equal values may be shown once. Where no end group is shown, it is not given here.

What was measured:
[1] = tested on: CT26 colon carcinoma cell line; assay: CT26 WT tumor challenge in immunized Balb/c mice; type: in vivo
Description: FIGS. 5A, 5B, 5C, and 5D show the experimental scheme to test the immunization with PD-L1 in Balb/c mice. […] Balb/c mice 6-8 weeks old, were immunized with MVF-peptide immunogens emulsified in ISA 720 with nor-MDP three times and three weeks apart. Mice were immunized with MVF-PD-L1 vaccine constructs [PD-L1(36-53), PD-L1(50-67), PD-L1(95-112), PD-L1(130-147)] prior to tumor challenge. Blood was collected weekly and sera tested for antibody titers by ELISA. Two weeks after the third immunization (3Y), the mice were engrafted with CT26 WT tumor cells 10^5 per mouse Control mice were treated twice weekly with PBS as negative control and twice weekly with anti-mPD-L1 mAb (10F.9G2) as positive control starting 2 days after tumor challenge. Tumor growths were observed twice weekly and measured by calipers.
The peptide vaccines were dissolved in water and emulsified in Montanide ISA 720 (1:1) and 100 μg nor-MDP (N-acetylglucosamine-3yl-acetyl-1-alanyl-d-isoglutamine). Female Balb/c mice (Charles River Laboratories) at the age of 5 to 6 weeks were immunized three times at 3-week intervals with 100 μg peptide vaccine, and 15 days after the third immunization, the mice were challenged s.c. with CT-26 tumor cells (100,000 per mouse). Mice immunized with an irrelevant MVF peptide chimera were used as a negative control.
Mice treated twice a week with anti-mouse PD-L1 MAb (Bio X Cell, West Lebanon, NH) 200 ug/dose was used as a positive control. Tumor growth was monitored for up to 18 days after challenge. During immunization, blood was drawn biweekly and used in ELISA to monitor Ab titers. The mice were euthanized at the end of treatment and tumors extracted and weighed samples of the tumors were saved for further study and for histological examination. The spleens were also collected for further examination.
Two weeks after the third immunization (3Y), the mice were inoculated subcutaneously (s.c) with CT26 carcinoma cells (1×10^5 cells per mouse) and tumor formation was monitored on a daily basis afterwards. Mice treated with PBS served as negative control, and twice weekly treated mice with 200 μg/dose injections of anti-mouse PD-L1 monoclonal antibody (mAb clone 10F.9G2) served as positive control. Tumor growth was monitored daily and measured by caliper. […] PD-L1 B-cell epitope vaccines treatment had similar and significant reduction in tumor growth at day 16 post challenge as compared to negative control treatment with PBS (FIG. 9).
(§1) 6-8 weeks old BALB/c mice (Charles River, Wilmington, MA) were used as standard animal models. Mouse CT26 colon carcinoma cell line was purchased from American Type Culture Collection Cells and were regularly cultured in RPMI1640 medium containing 10% FBS. CT26/HER2 cells were kindly provided by M. Penichet. Vaccines were dissolved in sterile water and emulsified in Montanide ISA 720 (1:1). Female Balb/c mice (Charles River Laboratories) at the age of 6-8 weeks were immunized three times at 3-week intervals with 100 μg of each peptide vaccine, and 2 weeks after the third immunization, the mice were challenged with CT26 and/or CT26/HER-2 tumor cells, which were implanted subcutaneously (s.c) on the right flank (1×10^5 per mouse). 200 μg of rat α-mouse PD-L1 mAb 10F.9G2 (Bio X Cell, West Lebanon, NH) were administered intraperitoneally (i.p.), twice weekly following tumor inoculation in the control group. Mice were monitored and scored for the formation of palpable tumors on a daily basis and sacrificed if tumors became necrotic or exceeded the predetermined size of 2,000 mm^3. Tumor volumes were measured in cubic millimeters with calipers and calculated with the following formula: A×B^2×0.5, where A is the largest diameter, and B is the widest point perpendicular to length. During immunization, blood was drawn weekly and used in ELISA to monitor antibody titers.
Tumor sizes were observed daily and measured by caliper. Tumor volumes were calculated by formula: Volume=(Length*Width*Width)/2. […]

[2] = tested on: MVF-PD-L1 peptide immunogen; assay: Immunogenicity in Balb/c mice, experiment 2 (CT26/HER-2): ELISA of sera vs each MVF-PD-L1 peptide immunogen; type: in vivo
Description: Immunogenicity of MVF-PD-L1 B-cell epitopes. New Zealand White rabbits were immunized with 1 mg of each MVF-peptide immunogens dissolved in dd H2O emulsified (1:1) in Montanide ISA 720 vehicle (Seppic) with 333 μg of N-acetylglucosamine-3yl-acetyl-1-alanyl-d-isoglutamine (nor-MDP). Rabbits were boosted with the same doses at 3-week's intervals. Blood was collected via the central auricular artery in rabbits. Blood was collected weekly (1Y+3, 2Y+1, 2Y+2,2Y+3, 3Y+1, 3Y+2 and sera tested for antibody titers by ELISA using the immunogens MVF-PD-L1 peptides. Sera (terminal) from rabbit (3Y+3) immunized with MVF-PD-1 peptide immunogens were tested individually versus the immunogen by ELISA. 200 ng/well peptide were used in duplicates to coat the ELISA plates. Titers are defined as the highest dilution of sera with an absorbance value of 0.2 after subtracting the blank. […]
In order to verify the efficacy of the PD-L1 epitope vaccines in vivo in the CT26/HER-2 carcinoma cell line, Balb/c mice (10 mice/group) were immunized with 100 μg each of MVF-PD-L1 (36-53), MVF-PD-L1 (50-67), MVF-PD-L1 (95-112) and MVF-PD-L1 (130-147) emulsified with nor-MDP and Montanide 720 (1:1 ratio) SCHEME 2A (FIG. 15A). As detailed in SCHEME 2A-D (FIGS. 15A, 15B, 15C, and 15D), mice were immunized 3 times at 3 weeks intervals. […] All PD-L1 epitopes elicited high titers of PD-L1 anti-peptide antibodies by ELISA. […] We also investigated the combination of PD-1(92-110) with PD-L1-95.
For each peptide, vaccine antibodies were raised in New Zealand white rabbits, purchased from Charles River Laboratories (Wilmington, MA, USA). Rabbits were immunized with 1 mg of MVF chimeric peptide emulsified in Montanide ISA 720 (Seppic, Paris, France) and boosted 3 times at three week intervals. For mouse experiments, mice, 6-8 weeks old, were immunized with 0.1 mg of peptide emulsified in ISA720 (1:1 ratio). Mice were boosted with the respective doses at 3-week intervals. Blood was then collected and sera were tested for antibody titers. Sera were collected weekly and peptide vaccine antibodies were purified by affinity chromatography using a protein A/G column and the concentration was measured using Spectrophometer. All experiments were performed in accordance with the U.S. Public Health Service Policy on Humane Care and Use of Laboratory animals and approved by the Ohio State University Institutional Animals Care and Use Committee, detailed in the accepted protocol.
as §1

KLLSLIKGVIVHRLEGVEGPSLVTSEHELTCQAEGYPKAE (KLLSLIKGVIVHRLEGVEGPSLVTSEHELTCQAEGYPKAE-NH2) [PD-L1(130)]
levels of lesions [1]: lowest levels of lesions
percentage of tumor growth inhibition compared to negative control [1]: Significant higher percentage of tumor growth inhibition
tumor inhibition versus PBS ([1]; Balb/c): significant inhibition of tumor growth
survival rate ([1]; Kaplan-Meier method): highest survival rate
average tumor growth inhibition ([1]; day 14 and 16): strongest average tumor growth inhibition
Immunogenicity (titers) 1′ Conc. 1: ([2]; bleed 1Y + 3, (1to100)): 1600
ELISA plate reading of serum ([2]; bleed 1Y + 3, (1to100), dilution 800, duplicate wells): 0.449 and 0.439
ELISA plate reading of serum ([2]; bleed 1Y + 3, (1to100), dilution 1,600, duplicate wells): 0.262 and 0.245
ELISA plate reading of serum ([2]; bleed 1Y + 3, (1to100), dilution 6,400, duplicate wells): 0.072 and 0.050
ELISA plate reading of serum ([2]; bleed 1Y + 3, (1to100), dilution 12,800, duplicate wells): 0.040 and 0.030
ELISA plate reading of serum ([2]; bleed 1Y + 3, (1to100), dilution row 100, duplicate wells): 1.023 and 1.039
ELISA plate reading of serum ([2]; bleed 1Y + 3, (1to100), dilution row 200, duplicate wells): 0.861 and 0.849
ELISA plate reading of serum ([2]; bleed 1Y + 3, (1to100), dilution row 400, duplicate wells): 0.671 and 0.672
ELISA plate reading of serum ([2]; bleed 1Y + 3, (1to100), dilution row 3,200, duplicate wells): 0.148 and 0.110
Immunogenicity (titers) 1′ Conc. 1: ([2]; bleed 2Y + 1, (1to100)): 6400
ELISA plate reading of serum ([2]; bleed 2Y + 1, (1to100), dilution 800, duplicate wells, bleed 2Y + 1): 1.118 and 1.079
ELISA plate reading of serum ([2]; bleed 2Y + 1, (1to100), dilution 1,600, duplicate wells, bleed 2Y + 1): 0.819 and 0.774
ELISA plate reading of serum ([2]; bleed 2Y + 1, (1to100), dilution 6,400, duplicate wells, bleed 2Y + 1): 0.311 and 0.286
ELISA plate reading of serum ([2]; bleed 2Y + 1, (1to100), dilution 12,800, duplicate wells, bleed 2Y + 1): 0.175 and 0.162
ELISA plate reading of serum ([2]; bleed 2Y + 1, (1to100), dilution row 100, duplicate wells, bleed 2Y + 1): 1.606 and 1.563
ELISA plate reading of serum ([2]; bleed 2Y + 1, (1to100), dilution row 200, duplicate wells, bleed 2Y + 1): 1.477 and 1.479
ELISA plate reading of serum ([2]; bleed 2Y + 1, (1to100), dilution row 400, duplicate wells, bleed 2Y + 1): 1.378 and 1.347
ELISA plate reading of serum ([2]; bleed 2Y + 1, (1to100), dilution row 3,200, duplicate wells, bleed 2Y + 1): 0.516 and 0.492
Immunogenicity (titers) 1′ Conc. 1: ([2]; bleed 2Y + 2, (1to1k)): 16000
ELISA plate reading of serum ([2]; bleed 2Y + 2, (1to1k), dilution 800, duplicate wells): 0.407 and 0.427
ELISA plate reading of serum ([2]; bleed 2Y + 2, (1to1k), dilution 1,600, duplicate wells): 0.280 and 0.257
ELISA plate reading of serum ([2]; bleed 2Y + 2, (1to1k), dilution 6,400, duplicate wells): 0.064 and 0.061
ELISA plate reading of serum ([2]; bleed 2Y + 2, (1to1k), dilution row 100, duplicate wells): 1.476 and 1.437
ELISA plate reading of serum ([2]; bleed 2Y + 2, (1to1k), dilution row 200, duplicate wells): 1.131 and 1.086
ELISA plate reading of serum ([2]; bleed 2Y + 2, (1to1k), dilution row 400, duplicate wells): 0.767 and 0.735
ELISA plate reading of serum ([2]; bleed 2Y + 2, (1to1k), dilution row 3,200, duplicate wells): 0.145 and 0.132
Immunogenicity (titers) 1′ Conc. 1: ([2]; bleed 2Y + 3, (1to1k)): 64000
ELISA plate reading of serum ([2]; bleed 2Y + 3, (1to1k), dilution 800, duplicate wells): 1.024 and 0.946
ELISA plate reading of serum ([2]; bleed 2Y + 3, (1to1k), dilution 1,600, duplicate wells): 0.699 and 0.615
ELISA plate reading of serum ([2]; bleed 2Y + 3, (1to1k), dilution 6,400, duplicate wells): 0.246 and 0.233
ELISA plate reading of serum ([2]; bleed 2Y + 3, (1to1k), dilution row 100, duplicate wells): 1.711 and 1.644
ELISA plate reading of serum ([2]; bleed 2Y + 3, (1to1k), dilution row 200, duplicate wells): 1.518 and 1.488
ELISA plate reading of serum ([2]; bleed 2Y + 3, (1to1k), dilution row 400, duplicate wells): 1.317 and 1.263
ELISA plate reading of serum ([2]; bleed 2Y + 3, (1to1k), dilution row 3,200, duplicate wells): 0.435 and 0.430
Immunogenicity (titers) 1′ Conc. 1: ([2]; bleed 3Y + 1, (1to1k)): 64000
ELISA plate reading of serum ([2]; bleed 3Y + 1, (1to1k), dilution 800, duplicate wells, bleed 3Y + 1): 1.176 and 1.158
ELISA plate reading of serum ([2]; bleed 3Y + 1, (1to1k), dilution 1,600, duplicate wells, bleed 3Y + 1): 0.801 and 0.729
ELISA plate reading of serum ([2]; bleed 3Y + 1, (1to1k), dilution 6,400, duplicate wells, bleed 3Y + 1): 0.219 and 0.206
ELISA plate reading of serum ([2]; bleed 3Y + 1, (1to1k), dilution row 100, duplicate wells, bleed 3Y + 1): 1.928 and 1.945
ELISA plate reading of serum ([2]; bleed 3Y + 1, (1to1k), dilution row 200, duplicate wells, bleed 3Y + 1): 1.823 and 1.707
ELISA plate reading of serum ([2]; bleed 3Y + 1, (1to1k), dilution row 400, duplicate wells, bleed 3Y + 1): 1.516 and 1.458
ELISA plate reading of serum ([2]; bleed 3Y + 1, (1to1k), dilution row 3,200, duplicate wells, bleed 3Y + 1): 0.438 and 0.427
Immunogenicity (titers) 1′ Conc. 1: ([2]; bleed 3Y + 2, (1to1k)): 64000
ELISA plate reading of serum ([2]; bleed 3Y + 2, (1to1k), dilution 800, duplicate wells, bleed 3Y + 2): 1.412 and 1.389
ELISA plate reading of serum ([2]; bleed 3Y + 2, (1to1k), dilution 1,600, duplicate wells, bleed 3Y + 2): 0.961 and 0.874
ELISA plate reading of serum ([2]; bleed 3Y + 2, (1to1k), dilution 6,400, duplicate wells, bleed 3Y + 2): 0.262
ELISA plate reading of serum ([2]; bleed 3Y + 2, (1to1k), dilution row 100, duplicate wells, bleed 3Y + 2): 2.313 and 2.334
ELISA plate reading of serum ([2]; bleed 3Y + 2, (1to1k), dilution row 200, duplicate wells, bleed 3Y + 2): 2.188 and 2.048
ELISA plate reading of serum ([2]; bleed 3Y + 2, (1to1k), dilution row 400, duplicate wells, bleed 3Y + 2): 1.819 and 1.749
ELISA plate reading of serum ([2]; bleed 3Y + 2, (1to1k), dilution row 3,200, duplicate wells, bleed 3Y + 2): 0.526 and 0.512
Immunogenicity (titers) 1′ Conc. 1: ([2]; bleed 3Y + 3, (1to1k)): 64000
ELISA plate reading of serum ([2]; bleed 3Y + 3, (1to1k), dilution 800, duplicate wells): 1.445 and 1.468
ELISA plate reading of serum ([2]; bleed 3Y + 3, (1to1k), dilution 1,600, duplicate wells): 0.909 and 0.999
ELISA plate reading of serum ([2]; bleed 3Y + 3, (1to1k), dilution 6,400, duplicate wells): 0.257
ELISA plate reading of serum ([2]; bleed 3Y + 3, (1to1k), dilution row 100, duplicate wells): 2.427 and 2.406
ELISA plate reading of serum ([2]; bleed 3Y + 3, (1to1k), dilution row 200, duplicate wells): 2.130 and 2.275
ELISA plate reading of serum ([2]; bleed 3Y + 3, (1to1k), dilution row 400, duplicate wells): 1.819 and 1.892
ELISA plate reading of serum ([2]; bleed 3Y + 3, (1to1k), dilution row 3,200, duplicate wells): 0.532 and 0.547
